Values of other authors as cited in patent US20130220225A1, “BAITING METHOD AND COMPOSITION” (priority 2008, published 2013).
Like-named read-outs stand apart in the source and are kept apart here.

How the values were obtained:
[1] = tested on: Tammar wallaby (Macropus eugenii); details: Oral
[2] = tested on: Brushtail Possum (Trichosaurus vulpecula); details: Oral
[3] = tested on: Bobcat (Lynx rufus); details: Oral
[4] = tested on: Blackbird (red-wing) (Agelaius phoenicus); details: Oral
[5] = tested on: Cat (Fellis libyca domestica); details: Oral
[6] = tested on: Starling (Sturnus vulgaris); details: Oral
[7] = tested on: Quail (Coturnix coturnix); details: Oral
[8] = tested on: Skunk (Mephitis mephitis); details: Oral
[9] = tested on: Ferret (Mustela putoris furo); details: Oral
[10] = tested on: Stoats (Mustela erminea); details: Oral
[11] = tested on: Magpie (black-billed) (Pica pica); details: Oral
[12] = tested on: Raccoon (Procyon lotor); details: Oral
[13] = tested on: Eagle (Aquila chrysaetos); details: Oral
[14] = tested on: Badger (Nth Am.) (Taxidea taxus); details: Oral
[15] = tested on: Guinea pig (female) (Cavellio porcinus); details: Oral
[16] = tested on: Fox (kit) (Vulpes velox); details: Oral
[17] = tested on: Mallard (duck) (Anas platyrhrynchos); details: Oral
[18] = tested on: Rat (male) (Rattus norvegicus); details: Oral
[19] = tested on: Crow (Corvus brachyrhynchos); details: Oral
[20] = tested on: Coyote (Canis latrans); details: Oral
[21] = tested on: Mouse (Mus domesticus)

## CCC(=O)c1ccc(N)cc1 [p-aminopropiophenone]
[1]
  LD50: 89 mg/kg
[2]
  LD50: 500 mg/kg
[3]
  LD50: 10 mg/kg
[4]
  LD50: 133 mg/kg
[5]
  LD50: 5.6 mg/kg
[6]
  LD50: >316 mg/kg
[7]
  LD50: >316 mg/kg
[8]
  LD50: >400 mg/kg
[9]
  LD50: 29 mg/kg
[10]
  LD50: 9.3 mg/kg
[11]
  LD50: 178 mg/kg
[12]
  LD50: 142 mg/kg
[13]
  LD50: >50 mg/kg
[14]
  LD50: 100 mg/kg
[15]
  LD50: 1020 mg/kg
[16]
  LD50: 14.1 mg/kg
[17]
  LD50: 38 mg/kg
[18]
  LD50: 177 mg/kg
[19]
  LD50: >178 mg/kg
[20]
  LD50: 5.6 mg/kg
[21]; Mouse (female), I.V.
  LD50: 200 mg/kg
[21]; Mouse (female), Oral
  LD50: >5,000 mg kg^−1
[21]; Mouse (male), I.V.
  LD50: 145 mg/kg
[21]; Mouse (sex not given), Oral
  LD50: 233 mg/kg
